Source: patent US6875451B2, “Compositions and methods for the treatment of primary and metastatic neoplastic diseases using arsenic compounds” (PolaRx Biopharmaceuticals Inc., priority 1997, dated 2005)

Tests used:
Type in all cases: cell-based
[1] = system: MCF7; assay: SRB growth assay, 2 days exposure, breast cancer
Experimental: (§1) Arsenic trioxide (1 mg/ml, 10 mg/ampoule, manufactured by Taylor Pharmaceuticals, Decatur, Ill.) was tested at five concentrations each at 10-fold dilutions, i.e., 10^−5, 10^−6, 10^−7, 10^−8 and 10^−9 μg/ml.
(§2) The in vitro tests were performed by incubating the test cells in the presence of the indicated concentration of arsenic trioxide under standard culture conditions for a designated period of time, which is followed by a sulforhodamine B (SRB) protein assay to estimate cell viability or growth. The cell lines are organized into subpanels according to the origin of the cell lines, e.g., leukemia, breast cancer, etc. A description of the cell lines and method of testing is described in Monk et al. (1997, Anticancer Drug Des. 12:533-41) and Weinstein et al., (1997, Science 275:343-9), which are incorporated herein in their entirety.
(§3) The measurement of an effect is expressed in Percentage Growth (PG). The measured effect of the compound on a cell line is calculated according to one or the other of the following two expressions: If (Mean ODtest−Mean ODzero)≧0. then PG=100×(Mean ODtest−Mean ODzero)/(Mean ODctrl−Mean ODzero) If (Mean ODtest−Mean ODzero)<0. then PG=100×(Mean ODtest−Mean ODzero)/(Mean ODzero where: • Mean ODzero=the average of optical density measurements of SRB-derived color just before exposure of cells to the test compounds; • Mean ODtest=the average of optical density measurements of SRB-derived color after exposure of cells to the test compound for a designated period of time; and • Mean ODctrl=the average of optical density measurements of SRB-derived color after with no exposure of cells to the test compound for a designated period of time
(§4) The first two columns describe the subpanel (e.g., leukemia) and cell line (e.g., CCRF-CEM) involved. The next two columns list the Mean ODzero and Mean ODctrl; the next five columns list the Mean ODtest for each of five different concentrations. Each concentration is expressed as the log10 (molar or μg/ml). The next five columns list the calculated PGs for each concentration. The response parameters GI50, TGI and LC50 are interpolated values representing the concentrations at which the PG is +50, 0, and −50, respectively. Sometimes these response parameters cannot be obtained by interpolation. If, for instance, all of the PGs in a given row exceed +50, then none of the three parameters can be obtained by interpolation. In such a case, the value given for each response parameter is the highest concentration tested and is preceded by a “>” sign. This practice is extended similarly to the other possible situations where a response parameter cannot be obtained by interpolation.
(§5) In the first set, the cells from 56 different cancer cell lines were exposed to five concentrations of arsenic trioxide continuously for two days prior to performing the SRB assay. In the second set, the cells from 50 different cell lines (a subset of the first 56 cell lines, plus the renal cancer cell line 786-0) were exposed continuously for six days prior to the SRB assay.

[2] = system: MDA-MB-231/ATCC; assay: SRB growth assay, 2 days exposure, breast cancer
Experimental: as §1, §2, §3, §4, §5

[3] = system: MDA-MB-435; assay: SRB growth assay, 2 days exposure, breast cancer
Experimental: as §1, §2, §3, §4, §5

[4] = system: MDA-N; assay: SRB growth assay, 2 days exposure, breast cancer
Experimental: as §1, §2, §3, §4, §5

[5] = system: MOLT-4; assay: SRB growth assay, 2 days exposure, leukemia
Experimental: as §1, §2, §3, §4, §5

[6] = system: IGROVI; assay: SRB growth assay, 6 days exposure, ovarian cancer; conditions: IGROV1, 6 days
Experimental: as §1, §2, §3, §4, §5

[7] = system: SK-OV-3; assay: SRB growth assay, 6 days exposure, ovarian cancer; conditions: SK-OV-3, 6 days
Experimental: as §1, §2, §3, §4, §5

[8] = system: OVCAR-5; assay: SRB growth assay, 6 days exposure, ovarian cancer; conditions: OVCAR-5, 6 days
Experimental: as §1, §2, §3, §4, §5

[9] = system: OVCAR-3; assay: SRB growth assay, 6 days exposure, ovarian cancer; conditions: OVCAR-3, 6 days
Experimental: as §1, §2, §3, §4, §5

[10] = system: OVCAR-8; assay: SRB growth assay, 6 days exposure, ovarian cancer; conditions: OVCAR-8, 6 days
Experimental: as §1, §2, §3, §4, §5

[11] = read-out: LC50 (the source's name)

arsenic trioxide was tested, and the TGI [1] was >0.0126 ng/mL, the “Percent Growth” value ([1]; log10 conc −4.9) was 11% and the “Percent Growth” value ([1]; log10 conc −5.9) was 95%. The “Percent Growth” value ([1]; log10 conc −6.9) was 108%, the “Percent Growth” value ([1]; log10 conc −7.9) was 98% and the “Percent Growth” value ([1]; log10 conc −8.9) was 99%. The TGI [2] was >0.0126 ng/mL, the “Percent Growth” value ([2]; log10 conc −4.9) was 3% and the “Percent Growth” value ([2]; log10 conc −5.9) was 107%. The “Percent Growth” value ([2]; log10 conc −6.9) was 109%, the “Percent Growth” value ([2]; log10 conc −7.9) was 102% and the “Percent Growth” value ([2]; log10 conc −8.9) was 97%. The TGI [3] was >0.0126 ng/mL, the “Percent Growth” value ([3]; log10 conc −4.9) was 21% and the “Percent Growth” value ([3]; log10 conc −5.9) was 94%. The “Percent Growth” value ([3]; log10 conc −6.9) was 105%, the “Percent Growth” value ([3]; log10 conc −7.9) was 93% and the “Percent Growth” value ([3]; log10 conc −8.9) was 94%. For the same substance, the TGI [4] was >0.0126 ng/mL, the “Percent Growth” value ([4]; log10 conc −4.9) was 3% and the “Percent Growth” value ([4]; log10 conc −5.9) was 86%. For the same substance, the “Percent Growth” value ([4]; log10 conc −6.9) was 91%, the “Percent Growth” value ([4]; log10 conc −7.9) was 101% and the “Percent Growth” value ([4]; log10 conc −8.9) was 102%. The TGI [5] was >0.0126 ng/mL, the “Percent Growth” value ([5]; log10 conc −4.9) was 4% and the “Percent Growth” value ([5]; log10 conc −5.9) was 77%. For the same substance, the “Percent Growth” value ([5]; log10 conc −6.9) was 105%, the “Percent Growth” value ([5]; log10 conc −7.9) was 105% and the “Percent Growth” value ([5]; log10 conc −8.9) was 109%. For the same substance, the TGI [6] was 6.62E−06, the “Mean Optical Densities” value ([6]; Log 10 Concentration −4.9) was 0.216 and the “Percent Growth” value ([6]; Log 10 Concentration −4.9) was −36%. For the same substance, the “Mean Optical Densities” value ([6]; Log 10 Concentration −5.9) was 2.877, the “Percent Growth” value ([6]; Log 10 Concentration −5.9) was 91% and the “Mean Optical Densities” value ([6]; Log 10 Concentration −6.9) was 3.204. The “Percent Growth” value ([6]; Log 10 Concentration −6.9) was 103%, the “Mean Optical Densities” value ([6]; Log 10 Concentration −7.9) was 3.056 and the “Percent Growth” value ([6]; Log 10 Concentration −7.9) was 98%. The “Mean Optical Densities” value ([6]; Log 10 Concentration −8.9) was 3.541, the “Percent Growth” value ([6]; Log 10 Concentration −8.9) was 115% and the CC50 [6, 11] was > 12.6 µM. The TGI [7] was 5.27E−06, the “Mean Optical Densities” value ([7]; Log 10 Concentration −4.9) was 0.020 and the “Percent Growth” value ([7]; Log 10 Concentration −4.9) was −51%. The “Mean Optical Densities” value ([7]; Log 10 Concentration −5.9) was 1.247, the “Percent Growth” value ([7]; Log 10 Concentration −5.9) was 84% and the “Mean Optical Densities” value ([7]; Log 10 Concentration −6.9) was 1.461. The “Percent Growth” value ([7]; Log 10 Concentration −6.9) was 99%, the “Mean Optical Densities” value ([7]; Log 10 Concentration −7.9) was 1.410 and the “Percent Growth” value ([7]; Log 10 Concentration −7.9) was 96%. The “Mean Optical Densities” value ([7]; Log 10 Concentration −8.9) was 1.445, the “Percent Growth” value ([7]; Log 10 Concentration −8.9) was 98% and the TGI [8] was 7.53E−06. For the same substance, the “Mean Optical Densities” value ([8]; Log 10 Concentration −4.9) was 0.028, the “Percent Growth” value ([8]; Log 10 Concentration −4.9) was −26% and the “Mean Optical Densities” value ([8]; Log 10 Concentration −5.9) was 1.287. The “Percent Growth” value ([8]; Log 10 Concentration −5.9) was 91%, the “Mean Optical Densities” value ([8]; Log 10 Concentration −6.9) was 1.478 and the “Percent Growth” value ([8]; Log 10 Concentration −6.9) was 105%. The “Mean Optical Densities” value ([8]; Log 10 Concentration −7.9) was 1.460, the “Percent Growth” value ([8]; Log 10 Concentration −7.9) was 104% and the “Mean Optical Densities” value ([8]; Log 10 Concentration −8.9) was 1.433. The “Percent Growth” value ([8]; Log 10 Concentration −8.9) was 102%, the CC50 [8, 11] was > 12.6 µM and the TGI [9] was 2.36E−06. The “Mean Optical Densities” value ([9]; Log 10 Concentration −4.9) was 0.001, the “Percent Growth” value ([9]; Log 10 Concentration −4.9) was −99% and the “Mean Optical Densities” value ([9]; Log 10 Concentration −5.9) was 0.482. For the same substance, the “Percent Growth” value ([9]; Log 10 Concentration −5.9) was 37%, the “Mean Optical Densities” value ([9]; Log 10 Concentration −6.9) was 1.124 and the “Percent Growth” value ([9]; Log 10 Concentration −6.9) was 97%. For the same substance, the “Mean Optical Densities” value ([9]; Log 10 Concentration −7.9) was 1.128, the “Percent Growth” value ([9]; Log 10 Concentration −7.9) was 98% and the “Mean Optical Densities” value ([9]; Log 10 Concentration −8.9) was 1.047. The “Percent Growth” value ([9]; Log 10 Concentration −8.9) was 90%, the TGI [10] was 3.21E−06 and the “Mean Optical Densities” value ([10]; Log 10 Concentration −4.9) was −0.001. The “Percent Growth” value ([10]; Log 10 Concentration −4.9) was −100%, the “Mean Optical Densities” value ([10]; Log 10 Concentration −5.9) was 1.437 and the “Percent Growth” value ([10]; Log 10 Concentration −5.9) was 68%. The “Mean Optical Densities” value ([10]; Log 10 Concentration −6.9) was 2.242, the “Percent Growth” value ([10]; Log 10 Concentration −6.9) was 107% and the “Mean Optical Densities” value ([10]; Log 10 Concentration −7.9) was 1.848. The “Percent Growth” value ([10]; Log 10 Concentration −7.9) was 88%, the “Mean Optical Densities” value ([10]; Log 10 Concentration −8.9) was 2.272 and the “Percent Growth” value ([10]; Log 10 Concentration −8.9) was 109%.
